Assay results from US20130071936A1, “FRET-BASED ZINC(II) ION INDICATOR” (The Florida State University Research Foundation, Inc., priority 2011, published 2013).
Where “and” joins values, the source holds several entries; their conditions need not be identical. Identical values can stand only once. Marks after values point to notes of the source that are not given here.

How the values were obtained:
[1] = Spectroscopic data (absorption, emission, fluorescence quantum yield) in CH3CN; format: physicochemical
Procedure: Reagents and solvents were purchased from various commercial sources and used without further purification unless otherwise stated. CH3CN (OmniSolv, EMD) were directly used in titration experiments without purification. All reactions were carried out in oven- or flame-dried glassware. Analytical thin-layer chromatography (TLC) was performed using pre-coated TLC plates with silica gel 60 F254 (EMD) or with aluminum oxide 60 F254 neutral (EMD). Flash column chromatography was performed using 40-63 μm (230-400 mesh ASTM) silica gel (EMD) or alumina (80-200 mesh, pH 9-10, EMD) as the stationary phases. Silica and alumina gel was flame-dried under vacuum to remove absorbed moisture before use. ^1H NMR spectra were recorded at 300 MHz on a Varian Mercury spectrometer. ^13C NMR spectra were recorded at 125 MHz, on a Bruker Avance spectrometer. All chemical shifts were reported in δ units relative to tetramethylsilane. High resolution mass spectra were obtained at the Mass Spectrometry Laboratory at Florida State University. ESI spectra were obtained on a JEOL AccuTOF spectrometer. Spectrophotometric and fluorometric titrations were conducted on a Varian Cary 100 Bio UV-Visible Spectrophotometer and a Varian Cary Eclipse Fluorescence Spectrophotometer, respectively, with a 1-cm standard quartz cell. The fluorescence quantum yield was determined by comparison of the integrated area of corrected emission spectrum with reference of N,N′-di-n-octyl-2,6-di-n-octylamino-1,4,5,8-naphthalenetetracarboxylic acid diimide (φf=0.53 in CH2Cl2) as the reference by the literature method. See Thalacker, C.; Röger, C.; Würthner, F. J. Org.

[2] = test system: mitochondria of HeLa (S3) cells transfected with mCerulean3 TOMM-20; assay: Colocalization by confocal fluorescence microscopy with mCerulean3 TOMM-20; format: cell-based
Procedure: FIGS. 13A through 13F are confocal fluorescence images of living HeLa (S3) cells transfected with mCerulean3 TOMM-20 that were incubated with zinc(II) ion indicator (5) (1.8 μM, A-C) and zinc(II) ion indicator (4) (6.0 μM, D-F) for 30 min. FIGS. 13A (zinc(II) ion indicator (5)) and 13D (zinc(II) ion indicator (4)) depict the green channel, λex 405 nm, λem 425-475 nm. FIGS. 13B (zinc(II) ion indicator (5)) and 13E (zinc(II) ion indicator (4)) depict the red channel, λex 543 nm, λem 580-680 nm. FIGS. 13C (zinc(II) ion indicator (5)) and 13F (zinc(II) ion indicator (4)) depict the merged image. Scale bar: 10 μm.
FIGS. 14A through 14F are confocal fluorescence images of live HeLa (S3) cells transfected with mCer3 TOMM20 that were incubated with FRET acceptor compound (3) (9.0 μM, A-C) and FRET acceptor compound (2) (52 μM, D-F) for 30 min. FIGS. 14A (FRET acceptor compound (3)) and 14D (FRET acceptor compound (2)) depict the green channel, λex 405 nm, λem 425-475 nm. FIGS. 14B (FRET acceptor compound (3)) and […] (FRET acceptor compound (2)) depict the red channel, λex 543 nm, λem 580-680 nm. FIGS. 14C (FRET acceptor compound (3)) and […] (FRET acceptor compound (2)) depict the merged image. Scale bar: 10 μm.
The colocalization properties of red-emitting compounds (2-5) were studied using HeLa (S3) cells transfected with mCerulean3 TOMM-20, a cyan fluorescent protein (CFP) fused with a mitochondrial targeting sequence whose emission is shown in the green channel. See FIG. 13A for emission spectrum from cells incubated with TPP-containing zinc(II) ion indicator (5), and see FIG. 13D for emission spectrum from cells incubated with zinc(II) ion indicator (4). […] The overall intracellular fluorescence intensity from zinc(II) ion indicator (4) is low, which is consistent with the observed weak fluorescence of the NDI fluorophore in aqueous solutions.
The localization properties of (2-5) were determined via costaining experiments using mCerulean3 TOMM-20, a mitochondrial-specific fusion of the cyan fluorescent protein (CFP) mCerulean3. mCerulean3 is a bright monomeric FP with an emission maximum of 475 nm. HeLa S3 cells were seeded onto Bioptechs Delta-T dishes 48 h prior to experimentation, then transfected about 24 h prior to loading the indicator using an Effectene Transfection Reagent Kit (Qiagen) and 1 μg of DNA. A 1:1 mixture of Dulbecco's modified Eagle's medium and Ham's F-12 (Invitrogen) supplemented with 12.5% fetal bovine serum was used as the culture medium. On the day of experimentation cells were rinsed twice with media and incubated with indicator 5 (1.8 μM) for 30 min. Prior to imaging cells were again rinsed twice with media, then provided with 1 mL of fresh media.
All cells were imaged using an Olympus Fluoview FV1000 confocal laser scanning microscope with an Olympus PLAPO 60× oil-immersion objective (NA=1.4). During experimentation cells were maintained at 37° C. and 5.0% CO2 using a Bioptechs Delta T4 Culture Dish Controller. Individual cells were imaged sequentially in two channels, using a 543 nm Helium-Neon laser line to excite the indicator and a 405 nm diode laser line to excite the FP. Cells were selected by the quality of FP expression, as the indicators tended to load homogenously into the cells. All data was collected using FluoView Software (Olympus). Laser power and detection settings were optimized for each image to fill LUTs. A pinhole size of 200 μm was used for each image. […]

COCCCNc1cc2c3c(c(NCCOc4ccc(/C=C/c5ccc(-c6ccc(COCCOCCOC)cn6)nc5)cc4)cc4c3c1C(=O)N(CCCOC)C4=O)C(=O)N(CCCOC)C2=O [Compound (4)]
λabs (A band) ([1]; complexes: Zn(ClO4)2 10 equiv.): 600 nm and 600 (A) nm | λabs (D band) ([1]; complexes: Zn(ClO4)2 10 equiv.): 346 nm and 346 (D) nm | λem ([1]; complexes: Zn(ClO4)2 10 equiv.): 633 nm | ∈/10^3 (A band) ([1]; complexes: Zn(ClO4)2 10 equiv.): 22 10^3 M^-1 cm^-1 | ∈/10^3 (D band) ([1]; complexes: Zn(ClO4)2 10 equiv.): 76 10^3 M^-1 cm^-1 | φf ([1]; λex = 565 nm): 0.41^c | intracellular appearance ([2]; 6.0 μM, 30 min): forms particulates intracellularly | colocalization with mitochondrial CFP (mCerulean3 TOMM-20) ([2]; 30 min incubation, (5) 1.8 μM, (4) 6.0 μM, (3) 9.0 μM, (2) 52 μM): poor colocalization with the CFP | overall intracellular fluorescence intensity ([2]; red channel λex 543 nm, λem 580-680 nm): low
